The record followed here is patent US9260429B2, “Pyrido[3,4-B]indoles and methods of use” (Medivation Technologies, Inc., priority 2008, dated 2016).

Where two headings read alike, the source gives them in different places.

The subject of assay [1] is rat central imidazoline I2 receptor. Briefly: Central imidazoline I2 radioligand binding ([3H]Idazoxan). The note with it: inhibition of specific [3H]Idazoxan binding. Here is the method: To evaluate in radioligand binding assays the activity of compounds of the invention, rat central imidazoline I2 receptor obtained from Wistar Rat cerebral cortex (Brown, C. M. et al., Br. J. Pharmacol. 99:803, 1990) in a modified Tris-HCl buffer (50 mM Tris-HCl buffer, pH 7.4, 0.5 mM EDTA) was used. Compounds of the invention were incubated with 2 nM [^3H]Idazoxan for 30 minutes at 25° C. Non-specific binding was estimated in the presence of 1 μM Idazoxan. Receptor proteins were filtered and washed, the filters were then counted to determine [^3H]Idazoxan specifically bound. Compounds were screened at 1 μM or lower, using 1% DMSO as vehicle. Compounds of the invention were tested in this biochemical assay and percent inhibition of specific binding was determined.

The target of assay [2] is T1, human recombinant dopamine D2L receptor (Homo sapiens, UniProt P14416).
T1 construct: expressed in transfected cells; host or cells: CHO cells
T1 sequence (P14416 whole entry): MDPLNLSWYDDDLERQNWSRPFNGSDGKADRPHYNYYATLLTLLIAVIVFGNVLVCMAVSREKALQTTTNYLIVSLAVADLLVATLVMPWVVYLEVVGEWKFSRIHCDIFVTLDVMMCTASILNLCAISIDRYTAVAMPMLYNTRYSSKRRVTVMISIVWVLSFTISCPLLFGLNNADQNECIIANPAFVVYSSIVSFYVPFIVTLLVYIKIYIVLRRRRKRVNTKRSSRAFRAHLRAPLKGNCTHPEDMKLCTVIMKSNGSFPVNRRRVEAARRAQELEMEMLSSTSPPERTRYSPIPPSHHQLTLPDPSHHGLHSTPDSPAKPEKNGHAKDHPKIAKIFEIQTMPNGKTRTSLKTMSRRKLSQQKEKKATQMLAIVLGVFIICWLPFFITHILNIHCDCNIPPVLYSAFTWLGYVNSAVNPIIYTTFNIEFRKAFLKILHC
Briefly: Dopamine D2L radioligand binding ([3H]Spiperone). As to conditions: for inhibition at 3 µM: compound concentration 3 μM; for inhibition at 10 µM: compound concentration 10 μM. The gist of the method:
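CHO-expressed receptor in 50 mM Tris-HCl pH 7.4 with ascorbic acid, 0.001% BSA, 150 mM NaCl; 0.16 nM [3H]spiperone, 120 min at 25 °C; nonspecific binding with haloperidol.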

Assay [3] deals with T2, human recombinant serotonin (5-Hydroxytryptamine) 5-HT7 receptor (Homo sapiens, UniProt P34969).
T2 construct: expressed in transfected cells; host or cells: CHO cells
T2 sequence (P34969 whole entry): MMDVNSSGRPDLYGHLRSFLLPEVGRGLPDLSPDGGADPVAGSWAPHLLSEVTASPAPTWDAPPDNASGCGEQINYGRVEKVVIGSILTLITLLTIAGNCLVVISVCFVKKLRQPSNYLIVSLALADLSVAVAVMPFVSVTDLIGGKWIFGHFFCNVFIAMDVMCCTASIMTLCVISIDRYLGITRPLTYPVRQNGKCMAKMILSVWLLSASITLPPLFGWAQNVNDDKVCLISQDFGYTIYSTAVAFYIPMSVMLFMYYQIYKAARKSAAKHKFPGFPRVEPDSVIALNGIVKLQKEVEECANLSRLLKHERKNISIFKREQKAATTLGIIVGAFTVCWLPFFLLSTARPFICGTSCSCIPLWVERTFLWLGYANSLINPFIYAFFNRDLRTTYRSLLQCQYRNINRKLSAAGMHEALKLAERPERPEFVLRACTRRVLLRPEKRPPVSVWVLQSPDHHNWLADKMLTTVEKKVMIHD
Briefly: Serotonin 5-HT7 radioligand binding ([3H]LSD). As to conditions: for inhibition at 1 µM: 2 h, read-out: Percent Inhibition of ligand binding Serotonin (1 μM ligand concentration) 5-HT7; for inhibition at 0.003 µM: compound concentration 3 nM; for inhibition at 0.003 µM / inhibition at 0.01 µM / inhibition at 0.03 µM / inhibition at 0.1 µM / inhibition at 0.3 µM: read-out: Percentage inhibition of ligand binding to 5-HT7 receptor; for inhibition at 0.01 µM: compound concentration 10 nM; for inhibition at 0.03 µM: compound concentration 0.03 μM; for inhibition at 0.1 µM: compound concentration 0.1 μM; for inhibition at 0.3 µM: compound concentration 0.3 μM. The gist of the method:
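CHO-expressed human 5-HT7 receptor with 5.5 nM [3H]LSD in 50 mM Tris-HCl pH 7.4, 10 mM MgCl2, 0.5 mM EDTA, 2 h at 25 °C; nonspecific binding defined with serotonin. Filtration and counting. Compounds at ≤1 μM, 1% DMSO; % inhibition of specific binding.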

Setting [4] is: 2 h, 1 μM ligand conc., read-out: Percent Inhibition of ligand binding Dopamine (1 μM ligand conc.) D2L.
Where [5] appears, read: compound concentration 1 μM, read-out: Percentage inhibition of ligand binding to D2L receptor.
The mark [6] stands for this setting: read-out: Percentage inhibition of ligand binding to D2L receptor.

Regarding `CN1CCc2c(n(CCc3ccc(F)cc3)c3ccc(Cl)cc23)C1` [Compound 3, 9-(4-fluorophenethyl)-6-chloro-2,3,4,9-tetrahydro-2-methyl-1H-pyrido[3,4-b]indole], the “Binding data (Percentage Inhibition) Imidazoline I2 Central (1 μM)” value in assay [1] turned out to be 20%. For the same compound, in assay [2] (setting [4]), the inhibition at 1 µM came out at 47%.
Take `CC1CCN(C(=O)Cn2c3c(c4cc(Cl)ccc42)CCN(C)C3)CC1` [Compound 38, 2-(6-chloro-1,2,3,4-tetrahydro-2-methylpyrido[3,4-b]indol-9-yl)-1-(4-methylpiperidin-1-vyl)ethanone]: the “Binding data (Percentage Inhibition) Imidazoline I2 Central (1 μM)” value in assay [1] was 33%. For the same compound, in assay [2] (setting [4]), the inhibition at 1 µM was -8%.
`CC1c2c(c3cc(Cl)ccc3n2C#Cc2ccc(Cl)cc2)CCN1C` (stereo not drawn) [Compound 132, 6-chloro-9-((4-chlorophenyl)ethynyl)-1,2-dimethyl-2,3,4,9-tetrahydro-1H-pyrido[3,4-b]indole]: the inhibition at 1 µM in assay [2] (setting [4]) is -6%; in assay [3] it was 35%.
As to `C/C(=C\n1c2c(c3cc(C)ccc31)CCN(C)C2c1ccccc1)c1ccc(Cl)cc1` (stereo not drawn) [Compound 164, 9-(2-(4-chlorophenyl)prop-1-enyl)-2,6-dimethyl-1-phenyl-2,3,4,9-tetrahydro-1H-pyrido[3,4-b]indole], the inhibition at 1 µM in assay [2] (setting [4]) is -2%; in assay [3], 8%.
In the case of `C/C(=C\n1c2c(c3cc(C)ccc31)CCN(C)C2)c1ccc(F)cc1` [Compound 91, (E)-9-(2-(4-fluorophenyl)prop-1-enyl)-2,6-dimethyl-2,3,4,9-tetrahydro-1H-pyrido[3,4-b]indole], in assay [2] (setting [4]), the inhibition at 1 µM is 27%. For the same compound, the inhibition at 1 µM in assay [2] (setting [5]) was found to be 44%. Further, in assay [2] (setting [6]), the inhibition at 3 µM came to 64% and the inhibition at 10 µM was determined as 91%. Also, in assay [3], the inhibition at 0.003 µM came to 19%, the inhibition at 0.01 µM is 36%, the inhibition at 0.03 µM came to 53% and the inhibition at 0.1 µM worked out at 83%. Also, in assay [3], the inhibition at 0.3 µM came to 87%.
For the compound `Cc1ccc2c(c1)c1c(n2CCC2CCCCC2)CN(C)CC1` [Compound 2, 9-(2-cyclohexylethyl)-2,3,4,9-tetrahydro-2,6-dimethyl-1H-pyrido[3,4-b]indole], the “Binding data (Percentage Inhibition) Imidazoline I2 Central (1 μM)” value in assay [1] came to 18%. For the same compound, the inhibition at 1 µM in assay [2] (setting [4]) was -7%.
Regarding `CCC1c2c(c3cc(Cl)ccc3n2C#Cc2ccc(F)cc2)CCN1C` (stereo not drawn) [Compound 129], the figures for the inhibition at 1 µM in assay [2] (setting [4]) and in assay [3] were -8% and 15%, respectively.
The like results for `CC1c2c(c3cc(Cl)ccc3n2CCc2ccc(F)cc2)CCN1C` (stereo not drawn) [Compound 81] were, in that order, 21% and 82%.
The like results for `C/C(=C/n1c2c(c3cc(C)ccc31)CCN(C)C2C)c1ccccc1F` (stereo not drawn) [Compound 165] were, in that order, 6% and 91%.
Turning to `C#CCn1c2c(c3cc(Cl)ccc31)CCN(C)C2` [Compound 125, 6-chloro-2,3,4,9-tetrahydro-2-methyl-9-(prop-2-yn1)-1H-pyrido[3,4-b]indole], in assay [1], the “Binding data (Percentage Inhibition) Imidazoline I2 Central (1 μM)” value is reported as 60%. Also, the inhibition at 1 µM in assay [2] (setting [4]) was 19%.
Take `C/C(=C\n1c2c(c3cc(Cl)ccc31)CCN(C)C2)c1ccc(Cl)cc1` [Compound 98, 6-chloro-9-(2-(4-chlorophenyl)prop-1-enyl)-2-methyl-2,3,4,9-tetrahydro-1H-pyrido[3,4-b]indole]: the inhibition at 1 µM in assay [2] (setting [4]) worked out at 32%; in assay [3], 94%.
The like results for `C/C(=C\n1c2c(c3cc(C)ccc31)CCN(C)C2)c1ccc(Cl)cc1` [Compound 97, 9-(2-(4-chlorophenyl)prop-1-enyl)-2,6-dimethyl-2,3,4,9-tetrahydro-1H-pyrido[3,4-b]indole] were, in that order, 15% and 98%.
Turning to `Cc1ccc2c(c1)c1c(n2CCc2ccc(C)nc2)CN(C)CC1` [Compound 1, 2,3,4,9-tetrahydro-2,6-dimethyl-9-(2-(6-methylpyridin-3-yl)ethyl)-1H-pyrido[3,4-b]indole], in assay [1], the “Binding data (Percentage Inhibition) Imidazoline I2 Central (1 μM)” value was determined as 40%. In addition, in assay [2] (setting [4]), the inhibition at 1 µM came out at 6%.
Consider `C/C(=C\n1c2c(c3cc(Cl)ccc31)CCN(C)C2)c1ccc(F)cc1` [Compound 90, (E)-6-chloro-9-(2-(4-fluorophenyl)prop-1-enyl)-2-methyl-2,3,4,9-tetrahydro-1H-pyrido[3,4-b]indole], for which the inhibition at 1 µM in assay [2] (setting [4]) amounted to 36%. Also, the inhibition at 1 µM in assay [2] (setting [5]) amounted to 39%. In assay [2] (setting [6]), the inhibition at 3 µM came out at 70% and the inhibition at 10 µM is 91%. In assay [3], the inhibition at 0.003 µM was -2%, the inhibition at 0.01 µM was found to be 15%, the inhibition at 0.03 µM came to 29% and the inhibition at 0.1 µM was found to be 63%. In addition, the inhibition at 0.3 µM in assay [3] worked out at 86%.
Consider `CCC1c2c(c3cc(C)ccc3n2C(=O)Cc2ccc(F)cc2)CCN1C` (stereo not drawn) [Compound 159], for which the inhibition at 1 µM in assay [2] (setting [4]) is -9%; in assay [3], 49%.
The like results for `CCC1c2c(c3cc(Cl)ccc3n2CCc2ccc(F)cc2)CCN1C` (stereo not drawn) [Compound 78] were, in that order, 11% and 99%.
In the case of `C/C(=C\n1c2c(c3cc(Cl)ccc31)CCN(C)C2C)c1ccc(Cl)cc1` (stereo not drawn) [Compound 99, 6-chloro-9-(2-(4-chlorophenyl)prop-1-enyl)-1,2-dimethyl-2,3,4,9-tetrahydro-1H-pyrido[3,4-b]indole], the results for the inhibition at 1 µM in assay [2] (setting [4]) and in assay [3] were -7% and 68%, respectively.
The like results for `C/C(=C/n1c2c(c3cc(Cl)ccc31)CCN(C)C2C)c1ccccc1F` (stereo not drawn) [Compound 167] were, in that order, 22% and 97%.
The corresponding values for `CCC1c2c(c3cc(Cl)ccc3n2CC(C)(O)c2ccc(F)cc2)CCN1C` (stereo not drawn) [Compound 79] are 2% and 85%.
The like results for `C/C(=C\n1c2c(c3cc(Cl)ccc31)CCN(C)C2C)c1ccccc1F` (stereo not drawn) [Compound 168] were, in that order, 9% and 84%.
